The record followed here is ChEMBL document CHEMBL3991601, “The target landscape of clinical kinase drugs” (Science, 2017).

Counter-ions that a name gives are not always drawn. Calls of active or inactive are those of the source. For most assays here, no stated cut-off is given here; in the data, actives have a measured Kd and inactives only a lower limit. Where only a bound is given, the exact number is not on record here.

For assay [1], the target named is T1, Dual specificity mitogen-activated protein kinase kinase 6 (Homo sapiens, UniProt P52564).
T1 sequence (P52564 whole entry): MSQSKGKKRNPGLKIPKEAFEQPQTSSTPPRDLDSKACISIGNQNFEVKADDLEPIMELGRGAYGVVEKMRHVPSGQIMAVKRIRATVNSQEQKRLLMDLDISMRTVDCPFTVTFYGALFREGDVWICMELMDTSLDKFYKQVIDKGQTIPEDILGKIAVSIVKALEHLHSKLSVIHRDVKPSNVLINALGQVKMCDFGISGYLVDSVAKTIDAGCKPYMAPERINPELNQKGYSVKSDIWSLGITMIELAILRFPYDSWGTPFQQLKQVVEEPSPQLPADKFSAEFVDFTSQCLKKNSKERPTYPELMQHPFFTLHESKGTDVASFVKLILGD

In assay [2] the target is Proto-oncogene tyrosine-protein kinase receptor Ret (Homo sapiens, UniProt P07949).
Sequence of Proto-oncogene tyrosine-protein kinase receptor Ret (P07949 whole entry): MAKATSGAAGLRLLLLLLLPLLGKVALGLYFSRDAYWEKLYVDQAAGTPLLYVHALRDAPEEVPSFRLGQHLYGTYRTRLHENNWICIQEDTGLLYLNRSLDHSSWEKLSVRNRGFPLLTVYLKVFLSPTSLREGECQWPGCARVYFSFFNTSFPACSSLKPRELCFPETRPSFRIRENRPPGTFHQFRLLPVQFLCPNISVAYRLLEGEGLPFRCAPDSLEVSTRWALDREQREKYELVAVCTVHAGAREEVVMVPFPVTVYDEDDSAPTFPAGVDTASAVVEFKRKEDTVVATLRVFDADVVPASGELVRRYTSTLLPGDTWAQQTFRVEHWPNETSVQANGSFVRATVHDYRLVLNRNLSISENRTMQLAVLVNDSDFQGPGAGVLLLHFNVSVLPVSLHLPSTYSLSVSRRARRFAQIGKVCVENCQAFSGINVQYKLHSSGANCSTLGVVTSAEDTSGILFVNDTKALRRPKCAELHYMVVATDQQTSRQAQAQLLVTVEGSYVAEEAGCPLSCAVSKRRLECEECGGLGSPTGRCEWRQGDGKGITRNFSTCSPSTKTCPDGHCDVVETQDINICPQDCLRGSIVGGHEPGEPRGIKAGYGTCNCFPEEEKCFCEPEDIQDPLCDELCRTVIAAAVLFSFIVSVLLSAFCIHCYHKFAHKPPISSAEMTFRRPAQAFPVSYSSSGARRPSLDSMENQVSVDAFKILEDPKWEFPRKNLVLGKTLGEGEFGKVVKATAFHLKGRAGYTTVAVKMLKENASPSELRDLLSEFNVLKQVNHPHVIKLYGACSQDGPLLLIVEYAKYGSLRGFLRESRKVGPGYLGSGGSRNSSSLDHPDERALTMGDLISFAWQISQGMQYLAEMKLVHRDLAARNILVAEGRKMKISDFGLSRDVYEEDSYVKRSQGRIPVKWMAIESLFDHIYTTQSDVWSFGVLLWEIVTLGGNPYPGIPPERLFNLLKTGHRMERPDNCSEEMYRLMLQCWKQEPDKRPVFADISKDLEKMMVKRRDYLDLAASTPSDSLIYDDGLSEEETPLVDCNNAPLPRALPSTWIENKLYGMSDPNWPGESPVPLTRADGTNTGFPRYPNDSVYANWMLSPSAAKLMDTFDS
Assay [3] concerns the target T2, Serine/threonine-protein kinase TAO2 (Homo sapiens, UniProt Q9UL54).
T2 sequence (Q9UL54 whole entry): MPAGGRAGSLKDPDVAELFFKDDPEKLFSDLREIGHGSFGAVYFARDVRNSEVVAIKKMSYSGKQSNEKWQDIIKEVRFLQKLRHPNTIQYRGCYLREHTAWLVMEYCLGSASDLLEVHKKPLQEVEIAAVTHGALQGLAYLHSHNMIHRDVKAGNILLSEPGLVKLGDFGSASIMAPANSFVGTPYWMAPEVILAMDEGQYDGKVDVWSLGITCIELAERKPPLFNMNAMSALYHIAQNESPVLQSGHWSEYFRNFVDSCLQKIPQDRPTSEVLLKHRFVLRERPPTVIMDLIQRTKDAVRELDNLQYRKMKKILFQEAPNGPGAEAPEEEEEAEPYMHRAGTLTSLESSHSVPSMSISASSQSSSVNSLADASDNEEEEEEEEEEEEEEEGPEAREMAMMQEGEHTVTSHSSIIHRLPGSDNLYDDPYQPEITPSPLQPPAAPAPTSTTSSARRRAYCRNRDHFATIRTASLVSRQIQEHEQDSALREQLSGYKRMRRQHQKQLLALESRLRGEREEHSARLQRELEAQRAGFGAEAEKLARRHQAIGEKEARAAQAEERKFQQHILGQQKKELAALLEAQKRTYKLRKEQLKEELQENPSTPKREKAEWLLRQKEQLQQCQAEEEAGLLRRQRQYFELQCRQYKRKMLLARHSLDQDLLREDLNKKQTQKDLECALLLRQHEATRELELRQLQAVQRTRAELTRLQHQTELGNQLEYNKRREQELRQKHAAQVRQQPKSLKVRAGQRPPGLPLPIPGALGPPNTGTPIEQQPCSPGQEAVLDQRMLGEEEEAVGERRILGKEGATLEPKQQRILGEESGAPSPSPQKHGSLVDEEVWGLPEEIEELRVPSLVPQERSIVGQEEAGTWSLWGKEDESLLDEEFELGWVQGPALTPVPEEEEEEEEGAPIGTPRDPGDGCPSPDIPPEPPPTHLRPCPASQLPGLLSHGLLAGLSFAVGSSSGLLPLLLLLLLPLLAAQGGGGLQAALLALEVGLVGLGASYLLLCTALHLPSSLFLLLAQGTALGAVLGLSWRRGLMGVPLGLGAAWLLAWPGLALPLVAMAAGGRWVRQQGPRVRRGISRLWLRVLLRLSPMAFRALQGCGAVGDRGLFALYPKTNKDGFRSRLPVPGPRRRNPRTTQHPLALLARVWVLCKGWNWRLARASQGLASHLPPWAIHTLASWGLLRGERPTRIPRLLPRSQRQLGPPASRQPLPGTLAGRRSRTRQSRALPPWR

The target in assay [4] is T3, Serine/threonine-protein kinase TAO3 (Homo sapiens, UniProt Q9H2K8).
T3 sequence (Q9H2K8 whole entry): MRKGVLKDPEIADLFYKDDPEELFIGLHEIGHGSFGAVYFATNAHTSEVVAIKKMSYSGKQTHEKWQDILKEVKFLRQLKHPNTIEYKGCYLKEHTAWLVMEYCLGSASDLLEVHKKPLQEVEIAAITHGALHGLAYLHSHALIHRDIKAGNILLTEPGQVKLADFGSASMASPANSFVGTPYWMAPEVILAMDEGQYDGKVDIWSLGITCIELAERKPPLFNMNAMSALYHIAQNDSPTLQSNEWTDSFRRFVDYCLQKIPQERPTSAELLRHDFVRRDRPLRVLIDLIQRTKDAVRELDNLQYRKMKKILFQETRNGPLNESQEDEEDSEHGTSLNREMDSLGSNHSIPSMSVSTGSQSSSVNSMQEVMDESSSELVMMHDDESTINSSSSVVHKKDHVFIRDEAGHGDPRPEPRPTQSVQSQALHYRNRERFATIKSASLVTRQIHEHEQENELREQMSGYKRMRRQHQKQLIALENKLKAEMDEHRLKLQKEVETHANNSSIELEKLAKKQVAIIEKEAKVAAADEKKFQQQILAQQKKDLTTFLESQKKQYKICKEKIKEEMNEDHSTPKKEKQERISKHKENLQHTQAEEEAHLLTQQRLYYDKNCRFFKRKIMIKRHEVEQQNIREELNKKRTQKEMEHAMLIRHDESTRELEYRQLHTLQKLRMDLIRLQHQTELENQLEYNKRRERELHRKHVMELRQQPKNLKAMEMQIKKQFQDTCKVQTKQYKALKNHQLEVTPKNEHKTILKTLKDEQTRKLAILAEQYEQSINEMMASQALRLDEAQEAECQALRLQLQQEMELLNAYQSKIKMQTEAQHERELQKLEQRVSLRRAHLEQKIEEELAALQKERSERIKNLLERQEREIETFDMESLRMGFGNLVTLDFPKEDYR

In the next assay the target is Wee1-like protein kinase (Homo sapiens, UniProt P30291).
Sequence of Wee1-like protein kinase (P30291 whole entry): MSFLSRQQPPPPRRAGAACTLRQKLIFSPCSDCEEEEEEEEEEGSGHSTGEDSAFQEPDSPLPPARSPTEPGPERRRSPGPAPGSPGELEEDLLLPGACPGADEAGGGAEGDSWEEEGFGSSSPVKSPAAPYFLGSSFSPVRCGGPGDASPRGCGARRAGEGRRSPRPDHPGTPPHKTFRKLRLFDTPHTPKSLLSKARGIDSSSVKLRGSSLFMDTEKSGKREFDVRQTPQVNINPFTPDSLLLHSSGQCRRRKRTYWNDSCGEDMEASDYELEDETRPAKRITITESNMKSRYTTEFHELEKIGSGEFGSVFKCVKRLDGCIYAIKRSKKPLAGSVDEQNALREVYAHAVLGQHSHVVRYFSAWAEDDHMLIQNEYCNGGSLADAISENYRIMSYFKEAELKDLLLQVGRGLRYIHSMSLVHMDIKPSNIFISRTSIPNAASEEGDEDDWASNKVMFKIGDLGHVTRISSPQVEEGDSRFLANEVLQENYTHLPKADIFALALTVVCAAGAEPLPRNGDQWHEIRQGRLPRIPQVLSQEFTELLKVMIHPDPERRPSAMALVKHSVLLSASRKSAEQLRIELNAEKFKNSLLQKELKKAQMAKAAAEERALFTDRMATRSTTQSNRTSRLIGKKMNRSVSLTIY

A word on the Kd: it is the free concentration of one partner at which half of the binding sites on the other are occupied at equilibrium, for simple one-to-one binding. Regarding `Cc1nc(NC(=O)N2CCC[C@H]2C(N)=O)sc1-c1ccnc(C(C)(C)C(F)(F)F)c1` [ALPELISIB], the Kd (in assay [1]; in assay [2]; in assay [3]; in assay [4]; at Wee1-like protein kinase) was > 30 µM (inactive) throughout.

Regarding `Cc1csc(-c2nnc(Nc3ccc(Oc4ncccc4-c4ccnc(N)n4)cc3)c3ccccc23)c1` [AMG-900], the Kd is > 30 µM (inactive) in assay [1]; 1.14 µM (active) in assay [2]; > 30 µM (inactive) in assay [3]; 1.77 µM (active) in assay [4]; > 30 µM (inactive) on Wee1-like protein kinase.

On to `C=CC(=O)Nc1cc2c(Nc3ccc(F)c(Cl)c3)ncnc2cc1C#CC(C)(C)N1CCN(C)CC1` [AV-412 FREE BASE], for which the Kd (in assay [1]; in assay [2]; in assay [3]; in assay [4]; at Wee1-like protein kinase) was > 30 µM (inactive) in each case.

Consider `COc1cc([C@@H]2c3cc4c(cc3[C@H](O)[C@H]3COC(=O)[C@@H]23)OCO4)cc(OC)c1OC` [AXL-1717], for which the Kd (in assay [1]; in assay [2]; in assay [3]; in assay [4]; at Wee1-like protein kinase) was > 30 µM (inactive) throughout.

`NC(=O)Nc1cc(-c2cccc(F)c2)sc1C(=O)N[C@H]1CCCNC1` [AZD-7762]: the Kd in assay [1] was > 30 µM (inactive); in assay [2] it was 0.023 µM (active); in assay [3] it was > 30 µM (inactive); in assay [4], > 30 µM (inactive); on Wee1-like protein kinase, > 30 µM (inactive).

In the case of `Cc1cc(C(=O)NOCCO)c(Nc2ccc(I)cc2F)n(C)c1=O` [AZD-8330], the Kd (in assay [1]; in assay [2]; in assay [3]; in assay [4]; at Wee1-like protein kinase) was > 30 µM (inactive) each time.

In the case of `Cn1cnc2c(F)c(Nc3ccc(Br)cc3F)c(C(=O)NOCCO)cc21` [BINIMETINIB], the Kd (in assay [1]; in assay [2]; in assay [3]; in assay [4]; at Wee1-like protein kinase) was > 30 µM (inactive) each time.

As to `CCn1c(C(=O)N(C2CC2)C2CC2)cc2c3c(ncn3C)c(Nc3cc(C)n(C)n3)nc21` [BMS-911543], the Kd (in assay [1]; in assay [2]; in assay [3]; in assay [4]; at Wee1-like protein kinase) was > 30 µM (inactive) throughout.

In the case of `COc1c(OCCCN2CCOCC2)ccc2c1N=C(NC(=O)c1cnc(N)nc1)N1CCN=C21` [COPANLISIB], the Kd (in assay [1]; in assay [2]; in assay [3]; in assay [4]; at Wee1-like protein kinase) was > 30 µM (inactive) in each case.

As to `COCC(=O)NC/C=C/c1ccc2ncnc(Nc3ccc(Oc4ccc(C)nc4)c(C)c3)c2c1` [CP-724714], the Kd (in assay [1]; in assay [2]; in assay [3]; in assay [4]; on Wee1-like protein kinase) was > 30 µM (inactive) throughout.

Turning to `CCS(=O)(=O)N1CCN(c2ccc(Nc3ncc(C(N)=O)c(NC4CC4)n3)cc2)CC1` [Cerdulatinib Hydrochloride], the Kd in assay [1] was > 30 µM (inactive); in assay [2] it was 1.23 µM (active); in assay [3], 2.22 µM (active); in assay [4] it was 8.26 µM (active); on Wee1-like protein kinase, > 30 µM (inactive).

For the molecule `Cc1nc2cc(-n3ncc(C(=O)c4cc5ccccc5[nH]4)c3N)ccc2[nH]1` [FGFR INHIBITOR DEBIO 1347], the Kd in assay [1] was > 30 µM (inactive); in assay [2] it was 0.783 µM (active); in assay [3], > 30 µM (inactive); in assay [4], > 30 µM (inactive); on Wee1-like protein kinase, > 30 µM (inactive).

Regarding `O=C(Nc1nc2cccc(-c3ccc(CN4CCS(=O)(=O)CC4)cc3)n2n1)C1CC1` [FILGOTINIB], the Kd (in assay [1]; in assay [2]; in assay [3]; in assay [4]; at Wee1-like protein kinase) was > 30 µM (inactive) in each case.

`Cc1cccc(-c2nn3c(c2-c2ccnc4ccc(C(N)=O)cc24)CCC3)n1` [GALUNISERTIB]: the Kd (in assay [1]; in assay [2]; in assay [3]; in assay [4]; at Wee1-like protein kinase) was > 30 µM (inactive) each time.

`COc1ccc(S(=O)(=O)N(C(C)=O)c2ccccc2/C=C/c2cc[n+]([O-])cc2)cc1` [HMN-214]: the Kd (in assay [1]; in assay [2]; in assay [3]; in assay [4]; on Wee1-like protein kinase) was > 30 µM (inactive) throughout.

For `O=C(Nc1cc(C(F)(F)F)cc(C(F)(F)F)c1)c1cc(Cl)ccc1O` [IMD-0354], the Kd (in assay [1]; in assay [2]; in assay [3]; in assay [4]; on Wee1-like protein kinase) was > 30 µM (inactive) in each case.

As for `CNC(=O)c1cccc2cc(Oc3ccnc4cc(OCC5(N)CC5)c(OC)cc34)ccc12` [LUCITANIB], the Kd is > 30 µM (inactive) in assay [1]; 0.005 µM (active) in assay [2]; > 30 µM (inactive) in assay [3]; > 30 µM (inactive) in assay [4]; > 30 µM (inactive) on Wee1-like protein kinase.

For `CNC(=O)c1nn(C)c2c1C(C)(C)Cc1cnc(Nc3ccc(N4CCN(C)CC4)cc3)nc1-2` [MILCICLIB], the Kd was > 30 µM (inactive) in assay [1]; 1.32 µM (active) in assay [2]; 5.25 µM (active) in assay [3]; 10.6 µM (active) in assay [4]; 0.013 µM (active) at Wee1-like protein kinase.

With `NC1(c2ccc(-c3nc4ccn5c(=O)[nH]nc5c4cc3-c3ccccc3)cc2)CCC1` [MK-2206], the Kd (in assay [1]; in assay [2]; in assay [3]; in assay [4]; on Wee1-like protein kinase) was > 30 µM (inactive) throughout.
